Measured values as given in patent US12129265B2, “Therapeutic agents and uses thereof” (Ankh Life Sciences Limited, priority 2020, dated 2024).
Read-outs that look alike come from different tables or passages of the source.

Legend:
Assay in all cases: CellTiter-Glo in vitro cell proliferation assay, Example 8
Format in all cases: cell-based, Human
[1] = tested on: A2780 cells; settings: A2780, Ovarian, read-out: Mean IC50
Protocol: (§1) In this Example, in vitro cell proliferation assays were performed using: (1) Human Myeloma tumor cell lines; (2) Human Lymphoma tumor cell lines; (3) Solid Human tumor cell lines; and (4) Parental, Lenalidomide resistant and Bortezomib resistant Jeko-1 Mantle cell Lymphoma tumor cell lines. The compounds tested were three diharmaline compounds, namely the 518B562 (or simply 562), 560, and 561 compounds. In addition, a monoharmaline product designated as 518F014 was also tested. This monoharmaline product had the following structure:
(§2) Each proliferation assay was carried out as follows. The test cells were plated in growth media using a 384-well microtiter plate at 50 μL volume. The cells were incubated for 24 hours at 37° C. in a humidified incubator. After 24 hours of incubation, the test compounds were added to the test wells in DSMO solvent, at concentrations ranging from 0.0075-100 μM. Control wells received equal volumes of DSMO, without compound. Following drugging, the cells were incubated for 72 hours at 37° C. in a humidified incubator. After this exposure, 100 μL of a 1:1 mixture of sterile water and CellTiter-Glo® reagent (Promega) was added to each well. The plates were then incubated for 60 minutes at room temperature, followed by recording the luminescence value of each well using a luminometer as a measure of cell proliferation.

[2] = tested on: A2780CP cells; settings: Ovarian, read-out: Mean IC50
Protocol: as §1, §2

[3] = tested on: A498 cells; settings: A498, RCC, read-out: Mean IC50
Protocol: as §1, §2

[4] = tested on: AN3CA cells; settings: Endometrial, read-out: Mean IC50
Protocol: as §1, §2

[5] = tested on: ASPC-1 cells; settings: ASPC-1, Pancreatic, read-out: Mean IC50
Protocol: as §1, §2

[6] = tested on: BxPC-3 cells; settings: BxPC-3, Pancreatic, read-out: Mean IC50
Protocol: as §1, §2

[7] = tested on: DOHH-2 cells; settings: DoHH-2, GCB-DLBCL, read-out: Mean IC50
Protocol: as §1, §2

[8] = tested on: FaDu cells; settings: H&N - SC, read-out: Mean IC50
Protocol: as §1, §2

[9] = tested on: H1650 (EGFR mut) cells; settings: read-out: Mean IC50
Protocol: as §1, §2

[10] = tested on: H1975 (EGFR mut) cells; settings: read-out: Mean IC50
Protocol: as §1, §2

[11] = tested on: HCC70 cells; settings: HCC70, TNBC, read-out: Mean IC50
Protocol: as §1, §2

[12] = tested on: HEC-1a cells; settings: Endometrial, read-out: Mean IC50
Protocol: as §1, §2

[13] = tested on: JIM1 cells; settings: JIM1, HMCL, read-out: Mean IC50
Protocol: as §1, §2

[14] = tested on: KMM-1 cells; settings: KMM-1, HMCL-A, read-out: Mean IC50
Protocol: as §1, §2

[15] = tested on: KMS-34 cells; settings: KMS-34, HMCL-B, read-out: Mean IC50
Protocol: as §1, §2

[16] = tested on: L363 cells; settings: L363, PCL/MM, read-out: Mean IC50
Protocol: as §1, §2

[17] = tested on: MDA-MB-231 cells; settings: MDA-MB-231, TNBC, read-out: Mean IC50
Protocol: as §1, §2

[18] = tested on: MDA-MB-468 cells; settings: MDA-MB-468, TNBC, read-out: Mean IC50
Protocol: as §1, §2

[19] = tested on: MIA PaCa-2 cells; settings: MIA PaCa-2, Pancreatic, read-out: Mean IC50
Protocol: as §1, §2

[20] = tested on: MOLP-8 cells; settings: MOLP-8, MM IgD, read-out: Mean IC50
Protocol: as §1, §2

[21] = tested on: OCI-LY3 cells; settings: OCI-LY3, ABC-DLBCL, read-out: Mean IC50
Protocol: as §1, §2

[22] = tested on: SiHA cells; settings: Cervical - SC, read-out: Mean IC50
Protocol: as §1, §2

[23] = tested on: RPMI-8226 cells; settings: RPMI-8226, HMM
Protocol: as §2
In this example, different cell lines were subjected to in vitro cell proliferation assays as described in Example 8. In particular, the cell lines are identified in the following Table 17, and the tissue types were: Pancreatic; Endometrial; Triple-Negative Breast Cancer (TNBC); Non-Small-Cell Lung Carcinoma (NSCLC); Ovarian; Renal Cell Carcinoma (RCC); Cervical-Squamous Cell; […] (H&N-Squamous Cell); Germinal Center B Cell-Like Novo Diffuse Large B-Cell Lymphoma (GCB-DLBCL); Activated B-Cell—Diffuse Large B Cell Lymphoma (ABC-DLBCL); Human Myeloma; Human Myeloma Cell Line Lymphocyte-Like; Human Myeloma Cell Line Lymphocyte-Like Myeloma Pleural Effusion Infiltration; Human Multiple Myeloma; Plasma Cell Leukemia/Multiple Myeloma Epstein-Barr Nuclear Antigen-Negative (EBNA-Negative) and to Express mRNA for Proto-Oncogene B-Cell Lymphoma 2 (BCL2); Multiple Myeloma from Peripheral Blood Type IgD Lmabda.

SMILES: COc1ccc2c3c([nH]c2c1)C(CC(CC1=NCCc2c1[nH]c1cc(OC)ccc21)c1ccc(F)c(Oc2ccccc2)c1)=NCC3 [compound 19]
- IC50 [1]: 22.1 µM
- IC50 [2]: 27.5 µM
- IC50 [3]: 89.5 µM
- IC50 [4]: 22.8 µM
- IC50 [5]: 45.5 µM
- IC50 [6]: 36.2 µM
- IC50 [7]: 10.2 µM
- IC50 [8]: 44.4 µM
- IC50 ([9]; NSCLC): 56.8 µM
- IC50 ([10]; NSCLC): 55 µM
- IC50 [11]: 50.9 µM
- IC50 [12]: 45 µM
- IC50 [13]: 42.9 µM
- IC50 [14]: 25.6 µM
- IC50 [15]: 31.2 µM
- IC50 [16]: 36.8 µM
- IC50 [17]: 41.8 µM
- IC50 [18]: 48.9 µM
- IC50 [19]: 36.6 µM
- IC50 [20]: 9.81 µM
- IC50 [21]: 20.6 µM
- IC50 [22]: 75.9 µM
- IC50 [23]: 10.6 µM

SMILES: COc1ccc2c3c([nH]c2c1)C(CC(CC1=NCCc2c1[nH]c1cc(OC)ccc21)c1cccc(F)c1)=NCC3 [compound 20]
- IC50 [1]: 3.75 µM
- IC50 [2]: 5.06 µM
- IC50 [3]: 11.3 µM
- IC50 [4]: 1.86 µM
- IC50 [5]: 3.66 µM
- IC50 [6]: 2.25 µM
- IC50 [7]: 1.88 µM
- IC50 [8]: 4.05 µM
- IC50 ([9]; NSCLC): 4.44 µM
- IC50 ([10]; NSCLC): 6.41 µM
- IC50 [11]: 6.35 µM
- IC50 [12]: 11 µM
- IC50 [13]: 4.28 µM
- IC50 [14]: 3.66 µM
- IC50 [15]: 3.26 µM
- IC50 [16]: 3.89 µM
- IC50 [17]: 4.71 µM
- IC50 [18]: 5.12 µM
- IC50 [19]: 2.72 µM
- IC50 [20]: 2.28 µM
- IC50 [21]: 3.85 µM
- IC50 [22]: 6.73 µM
- IC50 [23]: 1.27 µM

SMILES: COc1ccc2c3c([nH]c2c1)C(CC(CC1=NCCc2c1[nH]c1cc(OC)ccc21)c1ccc(F)cc1)=NCC3 [compound 21]
- IC50 [1]: 7.51 µM
- IC50 [2]: 9.87 µM
- IC50 [3]: 11.7 µM
- IC50 [4]: 3.93 µM
- IC50 [5]: 5.11 µM
- IC50 [6]: 3.58 µM
- IC50 [7]: 3.61 µM
- IC50 [8]: 6.26 µM
- IC50 ([9]; NSCLC): 8.22 µM
- IC50 ([10]; NSCLC): 11.4 µM
- IC50 [11]: 10.9 µM
- IC50 [12]: 11.7 µM
- IC50 [13]: 5.55 µM
- IC50 [14]: 6.41 µM
- IC50 [15]: 3.82 µM
- IC50 [16]: 5.15 µM
- IC50 [17]: 5.95 µM
- IC50 [18]: 6.74 µM
- IC50 [19]: 4.41 µM
- IC50 [20]: 3.69 µM
- IC50 [21]: 4.94 µM
- IC50 [22]: 11.5 µM
- IC50 [23]: 3.56 µM

SMILES: COc1ccc2c3c([nH]c2c1)C(CC(CC1=NCCc2c1[nH]c1cc(OC)ccc21)c1cc(F)cc(F)c1)=NCC3 [compound 22]
- IC50 [1]: 9.16 µM
- IC50 [2]: 9.3 µM
- IC50 [3]: 21.6 µM
- IC50 [4]: 4.15 µM
- IC50 [5]: 8.61 µM
- IC50 [6]: 5.37 µM
- IC50 [7]: 4.26 µM
- IC50 [8]: 11.1 µM
- IC50 ([9]; NSCLC): 11.1 µM
- IC50 ([10]; NSCLC): 11.5 µM
- IC50 [11]: 13.2 µM
- IC50 [12]: 11.8 µM
- IC50 [13]: 7.35 µM
- IC50 [14]: 6.21 µM
- IC50 [15]: 3.9 µM
- IC50 [16]: 6.12 µM
- IC50 [17]: 7.12 µM
- IC50 [18]: 11.5 µM
- IC50 [19]: 5.93 µM
- IC50 [20]: 3.83 µM
- IC50 [21]: 9.73 µM
- IC50 [22]: 11.7 µM
- IC50 [23]: 2.06 µM

SMILES: COc1ccc2c3c([nH]c2c1)C(CC(CC1=NCCc2c1[nH]c1cc(OC)ccc21)c1cc(F)c(F)cc1F)=NCC3 [compound 23]
- IC50 [1]: 5.07 µM
- IC50 [2]: 6.49 µM
- IC50 [3]: 21.4 µM
- IC50 [4]: 2.38 µM
- IC50 [5]: 9.26 µM
- IC50 [6]: 4.97 µM
- IC50 [7]: 3.73 µM
- IC50 [8]: 6.14 µM
- IC50 ([9]; NSCLC): 5.89 µM
- IC50 ([10]; NSCLC): 8.23 µM
- IC50 [11]: 10.9 µM
- IC50 [12]: 12.5 µM
- IC50 [13]: 6.32 µM
- IC50 [14]: 3.98 µM
- IC50 [15]: 3.47 µM
- IC50 [16]: 4.72 µM
- IC50 [17]: 5.94 µM
- IC50 [18]: 6.54 µM
- IC50 [19]: 5.64 µM
- IC50 [20]: 3.19 µM
- IC50 [21]: 5.45 µM
- IC50 [22]: 11.7 µM
- IC50 [23]: 1.28 µM

SMILES: COc1ccc2c3c([nH]c2c1)C(CC(CC1=NCCc2c1[nH]c1cc(OC)ccc21)c1c(F)c(F)c(F)c(F)c1F)=NCC3 [compound 24]
- IC50 ([1]; Homo sapiens): 10.6 µM
- IC50 ([2]; Homo sapiens, A2780C/P): 17.8 µM
- IC50 ([3]; Homo sapiens): 83.8 µM
- IC50 ([4]; Homo sapiens, AN3-CA): 11.2 µM
- IC50 ([5]; Homo sapiens, ASPC1): 32.7 µM
- IC50 ([6]; Homo sapiens): 10.8 µM
- IC50 ([7]; Homo sapiens): 5.58 µM
- IC50 ([8]; Homo sapiens): 11.7 µM
- IC50 ([9]; Homo sapiens, NCI-H1650, NSCLC): 12.5 µM
- IC50 ([10]; Homo sapiens, NCI-H1975, NSCLC): 11.7 µM
- IC50 ([11]; Homo sapiens): 25.7 µM
- IC50 ([12]; Homo sapiens): 48.2 µM
- IC50 ([13]; Homo sapiens): 56.1 µM
- IC50 ([14]; Homo sapiens): 11.3 µM
- IC50 ([15]; Homo sapiens): 7.84 µM
- IC50 ([16]; Homo sapiens, L-363): 13.2 µM
- IC50 ([17]; Homo sapiens): 20.7 µM
- IC50 ([18]; Homo sapiens): 16.6 µM
- IC50 ([19]; Homo sapiens): 13 µM
- IC50 ([20]; Homo sapiens): 10.6 µM
- IC50 ([21]; Homo sapiens): 11.4 µM
- IC50 ([22]; Homo sapiens): 58.9 µM
- IC50 ([23]; Homo sapiens): 5.05 µM

SMILES: COc1ccc2c3c([nH]c2c1)C(CC(CC1=NCCc2c1[nH]c1cc(OC)ccc21)c1ccc(Cl)cc1)=NCC3 [compound 27]
- IC50 [1]: 8.09 µM
- IC50 [2]: 11.1 µM
- IC50 [3]: 11.7 µM
- IC50 [4]: 4.36 µM
- IC50 [5]: 7.34 µM
- IC50 [6]: 4.61 µM
- IC50 [7]: 2.52 µM
- IC50 [8]: 11.2 µM
- IC50 ([9]; NSCLC): 11.3 µM
- IC50 ([10]; NSCLC): 11.5 µM
- IC50 [11]: 11.4 µM
- IC50 [12]: 11.7 µM
- IC50 [13]: 11.4 µM
- IC50 [14]: 7.18 µM
- IC50 [15]: 4.44 µM
- IC50 [16]: 7.83 µM
- IC50 [17]: 7.39 µM
- IC50 [18]: 10.8 µM
- IC50 [19]: 5.83 µM
- IC50 [20]: 3.97 µM
- IC50 [21]: 9.27 µM
- IC50 [22]: 11.6 µM
- IC50 [23]: 3.21 µM
